For assay [1], the system named is Gram-positive S. mutans and Gram-negative E. coli bacteria. Kind of assay: Peptide bacterial binding and aggregation studies. Conditions: synthetic peptides. Here is the method:
For quantitative measurements of bacterial aggregation, we added 200 μl peptide stock solution (1 mg/ml in 10% DMSO) diluted with 300 μl TBS containing 0.1% v/v Tween 20 and 1 mM CaCl2 (TBS-TC) to 500 μl of the respective bacterial suspensions to obtain final peptide concentrations of […]. As controls, we used bacterial suspensions, to which 200 μl 10% (v/v %) DMSO in H2O and 300 μl TBS-TC were added. Bacterial aggregation was monitored by measuring the optical density at 700 nm in intervals of 1 min for 1 h in a spectrophotometer (UVICON 930, Kontron Instruments). For the semi-quantitative high-throughput competition assays, we first determined the allowed pH range for DMBT1pbs1-mediated aggregation of S. gordonii and E. coli by using TBS-TC adjusted with either HCl or NaOH. […] For monitoring competitive effects, we preincubated 20 μl of the DMBT1pbs1 stock solution (20 μg) with 20 μl of the respective substance solutions in 48-well microtiter plates at room temperature (RT) for 2 min. As reference served 20 μl 10% (v/v) DMSO solution in H2O mixed with 20 μl of the solvents of the respective substances. Afterwards, 100 μl of S. gordonii or E. coli (resuspended in TBS-TC or TBS-T, respectively, for the calcium-free assays) solution was added simultaneously to each well using a multichannel pipette. […]

Assay [2] has as its target HIV-gp120 (Human immunodeficiency virus type 1 group M subtype B, UniProt P04578). Conditions: S. gordonii binding to immobilized SRCRP2 in absence and presence of HIV-gp120.
Text: Left panel: peptide SRCRP2 (containing DMBT1pbs1) was immobilized on ELISA plates and bacterial binding (S. gordonii) was quantified in the absence and presence of different concentrations of HIV-gp120.

On to GRVEVLYRGSW [DMBT1pbs1], for which the “bacterial binding and aggregation activity (Gram-positive and -negative bacteria)” value in assay [1] was “sufficient and necessary for interaction with Gram-positive and -negative bacteria”. The HIV-gp120 binding activity entry in assay [2] is “exerts HIV-gp120 binding activity”.

The values above are taken from US8017124B2, “Use of DMBT1 for capturing sulphate and phosphate group exposing agents” (priority 2004, dated 2011).
